Measurements as given in patent US20110245349A1, “BENZYL ALCOHOL MIXTURE FOR TREATING PREMATURE EJACULATION” (PANAXIA LTD., priority 2010, published 2011).

Tested on: sexual desensitization of male subjects
Experiment: Desensitization effect scored by male subjects after rubbing the mixture on the genital organs and manual stimulation
Type: in vivo, human
Settings: for Mean desensitization effect: scale of 1-10, mean of 5 subjects
Description: In a trial which was conducted on 5 healthy, sexually active male subjects the following formulations were tested: Benzyl alcohol in concentrations: 1%, 3%, 5%, 7% and 10%. Each of the concentrations was tested in the following vehicles: aqueous alcoholic solution, gel, ointment and cream. For each formulation the participants were requested to rub the mixture on their genital organs until complete skin absorption and then wait for the full effect for 5 minutes. After the waiting period the participants were requested to perform manual stimulation of their genital organs and describe the desensitization effect of the mixture in a scale of 1-10.
In another trial, menthol was added to the mixture and the same procedure that was described earlier was applied to assess the effect of menthol addition.

For `OCc1ccccc1` [Benzyl alcohol], the “Desensitization effect (in words)” value (each of the benzyl alcohol concentrations tested (1-10%)) was “effective as a desensitizer”, the “Optimal concentration of benzyl alcohol” value (found in the applicant's tests) was 5% and the Mean desensitization effect (aqueous alcoholic solution (1:1 water ethanol mixture), benzyl alcohol 1%, 5 min wait) was 3.2. It also gave a Mean desensitization effect (aqueous alcoholic solution (1:1 water ethanol mixture), benzyl alcohol 3%) of 4.6, a Mean desensitization effect (aqueous alcoholic solution (1:1 water ethanol mixture), benzyl alcohol 5%) of 6.2 and a Mean desensitization effect (aqueous alcoholic solution (1:1 water ethanol mixture), benzyl alcohol 7%) of 7.6. It also gave a Mean desensitization effect (aqueous alcoholic solution (1:1 water ethanol mixture), benzyl alcohol 10%) of 8.0, a Mean desensitization effect (aqueous gel (1% hydroxyethylcellulose gel), benzyl alcohol 1%) of 2.8 and a Mean desensitization effect (aqueous gel (1% hydroxyethylcellulose gel), benzyl alcohol 3%) of 4.2. For the same compound, the Mean desensitization effect (aqueous gel (1% hydroxyethylcellulose gel), benzyl alcohol 5%) was 5.6, the Mean desensitization effect (aqueous gel (1% hydroxyethylcellulose gel), benzyl alcohol 7%) was 6.6 and the Mean desensitization effect (aqueous gel (1% hydroxyethylcellulose gel), benzyl alcohol 10%) was 7.4. The Mean desensitization effect (cream, benzyl alcohol 1%) was 2.4, the Mean desensitization effect (cream, benzyl alcohol 3%) was 3.6 and the Mean desensitization effect (cream, benzyl alcohol 5%) was 5.2. It also gave a Mean desensitization effect (cream, benzyl alcohol 7%) of 6.2, a Mean desensitization effect (cream, benzyl alcohol 10%) of 6.8 and a Mean desensitization effect (ointment, benzyl alcohol 1%) of 2.0. It also gave a Mean desensitization effect (ointment, benzyl alcohol 3%) of 3.2, a Mean desensitization effect (ointment, benzyl alcohol 5%) of 4.8 and a Mean desensitization effect (ointment, benzyl alcohol 7%) of 5.8. For the same compound, the Mean desensitization effect (ointment, benzyl alcohol 10%) was 6.2.
With `CC1CCC(C(C)C)C(O)C1` (stereo not drawn) [menthol, Menthol] the “Desensitization effect (in words)” value (menthol combined with benzyl alcohol gel, compared with the same concentration of benzyl alcohol alone) was “dramatic effect” and the “Desensitization effect (in words)” value (sole use of menthol in 1% Hydroxyethylcellulose gel) was “did not create a substantial desensitization effect”.
